The source of these data is patent US20260132172A1, “IN VITRO BIOSYNTHESIS OF DIVERSE PYRIDINE-BASED MACROCYCLIC PEPTIDES” (The Brd. of Trustees of the Univ. of Illinois, priority 2022, published 2026).

The target of assay [1] is MBP-MroD. The experiment in a line: Fluorescence polarization to measure KD with MroD. Type of assay: binding, Micromonospora rosaria. The protocol:
(§1) All proteins and peptides were prepared in the 0.5× storage buffer before concentration/FP measurement. Experiments were done in triplicates. Stock fluorescein-labeled peptide was measured concentration using A490 (ε: 70,000 M^−1 cm^−1). Initial sample was prepared: 5 nM labelled Δ12MroA1 (for MroD; for MroB, only 2 nM labelled Δ12MroA1 was used), 10 μM MBP-MroB (A280 ε: 178,885 M^−1 cm^−1) or 10 μM MBP-MroD (A280 ε:115,740 M^−1 cm^−1). In a black 96-well plate (Corning 3686), 50 μL of initial sample was added to the first well, followed by 11 3-fold dilutions into subsequent wells containing 5 nM labeled Δ12MroA1. The plate was covered from light and incubated at room temperature for 1 h, and then fluorescence polarization was measured (Biotek Synergy H4 hybrid reader) using the following filter (Excitation: Emission—485 nm/20 nm: 518 nm/20 nm). The obtained data was converted to anisotropy value and plotted against protein concentration. Using the OriginPro software, the data were fitted to receptor depletion equation:^11
(§2) Where: y=anisotropy value, A1=minimum anisotropy, A2=maximum anisotropy, Lt=probe concentration, and x=total enzyme concentration.
(In fluorescence polarisation assays a small probe gives low polarisation when free and higher when bound to something large.)

Assay [2] concerns the target MBP-MroB. The experiment in a line: Fluorescence polarization to measure KD with MroB. Type of assay: binding, Micromonospora rosaria. Here is the method:
as §1, §2

Assay [3] has as its system MroB/C. Put plainly: MroB/C dehydration (Dha formation) of MroA precursor peptide variants, MALDI-TOF-MS / LC-MS/MS. Type of assay: biochemical, Micromonospora rosaria. The following applies: MroA2 multi-site variants, in vitro translated, MALDI-TOF-MS. An outline of the steps:
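MroA variants made by in vitro translation (37 °C, 1 h) were treated for 1 h at room temperature with TEV-cleaved MroB/MroC (2 µM each), GluRS, tRNA^Glu, 6 mM ATP and 5 mM IAA in 50 mM HEPES pH 7.5. Purified substrates were used at 10 µM without IAA. Dehydration was read by positive-mode LC-ESI-MS/MS with CID at 25 eV.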

Assay [4] has as its system MroD. Put plainly: MroD [4+2] macrocyclization of didehydrated MroA2 variants, MALDI-TOF-MS. The following applies: MroA2 multi-site variants; qualitatively estimated from leader peptide vs remaining didehydrated intermediate. Type of assay: biochemical, Micromonospora rosaria. Here is the method:
After incubation, the enzyme reaction (18 μL) was split into two equal parts. One part was treated with MBP-MroD such that the final concentration of MBP-MroD is 3 μM, and the other part was added the same volume but with buffer lacking MBP-MroD (50 mM HEPES, 300 mM NaCl, 2.5% glycerol, 0.5 mM TCEP). The reaction further proceeded for 1.5 h at room temperature. All reaction mixture was then desalted with solid-phase extraction using Ziptip with 0.6 μL C18 resin (EMD Millipore) and crystallized on an MTP384 steel target plate using either saturated sinapic acid or 50 mg/mL Super DHB [dissolved in 60% acetonitrile and 0.1% trifluoroacetic acid (TFA)] as the matrix. The crystallized spots were then analyzed using MALDI-TOF-MS (Bruker Ultraflex). The external standard for MALDI-TOF-MS analysis is ProteoMass Peptide and Protein MALDI-MS Calibration Kit (Sigma).

Where a SMILES comes first, the peptide text is derived from it. The star is where a group is joined. 5FAM = O=C1OC2(c3ccc(O)cc3Oc3cc(O)ccc32)c2ccc(C(=O)*)cc21

Regarding `CC[C@H](C)[C@H](NC(=O)[C@@H](NC(=O)[C@H](Cc1c[nH]c2ccccc12)NC(=O)[C@H](CO)NC(=O)CNC(=O)[C@H](CC(C)C)NC(=O)[C@H](Cc1c[nH]c2ccccc12)NC(=O)CNC(=O)[C@H](CO)NC(=O)[C@H](C)NC(=O)CNC(=O)[C@@H](NC(=O)[C@H](CCC(=O)O)NC(=O)[C@@H](NC(=O)[C@H](CC(N)=O)NC(=O)CNC(=O)[C@H](CC(C)C)NC(=O)CNC(=O)CNC(=O)[C@@H](NC(=O)[C@H](CO)NC(=O)[C@H](CC(C)C)NC(=O)[C@H](C)NC(=O)[C@H](C)NC(=O)[C@H](CC(C)C)NC(=O)[C@H](CCC(=O)O)NC(=O)[C@H](CCC(=O)O)NC(=O)[C@H](CC(=O)O)NC(=O)[C@@H](NC(=O)[C@H](C)NC(=O)[C@H](CC(C)C)NC(=O)[C@H](CC(=O)O)NC(=O)[C@H](CC(C)C)NC(=O)[C@H](CC(=O)O)NC(=O)[C@@H](NC(=O)[C@@H](NC(=O)[C@H](CC(=O)O)NC(=O)[C@H](CC(C)C)NC(=O)[C@H](CC(=O)O)NC(=O)[C@H](CO)NC(=O)c1ccc2c(c1)C(=O)OC21c2ccc(O)cc2Oc2cc(O)ccc21)[C@@H](C)CC)C(C)C)C(C)C)C(C)C)[C@@H](C)O)C(C)C)C(C)C)C(=O)O` [fluorescein-Δ12MroA1] (5FAM-SDLDIVDLDLAVDEELAALSVGGLGNTEVGASGWLGSWVI-OH), the Kd in assay [1] was approximately 12 nM; in assay [2] it was approximately 60 nM.
As for SGIAKAGQSWLI [Number 28], in assay [3], the Dha formation turned out to be 2 Dha. Moreover, in assay [4], the “Relative MroD conversion” value was 1.

As a reminder, the Kd is a measure of binding affinity in units of concentration.
